Results published in US10722484B2, “Methods of cancer treatment” (K-Gen, Inc., priority 2016, dated 2020).
Where two headings read alike, the source gives them in different places.

Assays:
MiaPaCa-2 = assay: Proliferation assay (CellTiter Glo); type: cell-based; conditions: 96 hours; for EC50: Homo sapiens, MIA PaCa-2; for Top Inhibition %: % of top inhibition
CCRF-CEM = assay: Proliferation assay (CellTiter Glo); type: cell-based; conditions: 96 hours; for Top Inhibition %: % of top inhibition; for EC50: Homo sapiens
Experimental: (§1) The dose range for most compounds was 4.6 nM-30 μM. The dose ranges for some compounds were adjusted downward to 0.46 nM-3 μM or 0.08 nM-0.5 μM or 0.03 nM-0.2 μM. […] The results are shown in Tables 3-6 for pancreatic cancer, lung cancer, colon/gastric cancer, and leukemia.

H358 = assay: Proliferation assay (CellTiter Glo); type: cell-based; conditions: HE58, 96 hours; for Top Inhibition %: % of top inhibition; for EC50: Homo sapiens, NCI-H358
Experimental: as §1

Capan-1 = assay: Proliferation assay (CellTiter Glo); type: cell-based; conditions: 96 hours; for Top Inhibition %: % of top inhibition; for EC50: Homo sapiens
Experimental: as §1

HCT116 = assay: Proliferation assay (CellTiter Glo); type: cell-based; conditions: 96 hours; for Top Inhibition %: % of top inhibition; for EC50: Homo sapiens, HCT-116
Experimental: as §1

AGS = assay: Proliferation assay (CellTiter Glo); type: cell-based; conditions: 96 hours; for Top Inhibition %: % of top inhibition; for EC50: Homo sapiens
Experimental: as §1

A549 = assay: Proliferation assay (CellTiter Glo); type: cell-based; conditions: 96 hours; for Top Inhibition %: % of top inhibition; for EC50: Homo sapiens
Experimental: as §1

Pan2.03 = assay: Proliferation assay (CellTiter Glo); type: cell-based; conditions: 96 hours; for Top Inhibition %: % of top inhibition
Experimental: as §1

SW620 = assay: Proliferation assay (CellTiter Glo); type: cell-based; conditions: 96 hours; for EC50: Homo sapiens, SW-620, SW620 (K-RAS: G12V), absolute EC50, read-out: Ab EC50; for Top Inhibition %: SW620, % of top inhibition
Experimental: as §1

LS180 = assay: Proliferation assay (CellTiter Glo); type: cell-based; conditions: 96 hours; for EC50: Homo sapiens, LS180 (K-RAS: G12D), absolute EC50, read-out: Ab EC50; for Top Inhibition %: LS180, % of top inhibition
Experimental: as §1

KP-4 = assay: Proliferation assay (CellTiter Glo); type: cell-based; conditions: 96 hours; for EC50: Homo sapiens; for Top Inhibition %: % of top inhibition
Experimental: as §1

H441 = assay: Proliferation assay (CellTiter Glo); type: cell-based; conditions: 96 hours; for Top Inhibition %: % of top inhibition; for EC50: Homo sapiens, NCI-H441
Experimental: as §1

Pan2.13 = assay: Proliferation assay (CellTiter Glo); type: cell-based; conditions: 96 hours; for Top Inhibition %: % of top inhibition
Experimental: as §1

AsPC-1 = assay: Proliferation assay (CellTiter Glo); type: cell-based; conditions: 96 hours; for Top Inhibition %: % of top inhibition; for EC50: Homo sapiens, ASPC1
Experimental: as §1

H727 = assay: Proliferation assay (CellTiter Glo); type: cell-based; conditions: 96 hours; for Top Inhibition %: % of top inhibition; for EC50: Homo sapiens, NCI-H727
Experimental: as §1

[1] = test system: leukemia inhibitory factor (LIF); assay: Western blot analysis of PKC signaling pathway elements in A549 cells; type: cell-based; conditions: for protein levels of the leukemia inhibitory factor (LIF): Western blot, concentrations of Table 8 (K101A 0.1, 0.5, […]; K101E […]; K102 0.1, 0.5 μM; K103 0.01 μM; Ref1 1 μM; Ref2 0.01 μM)
Experimental: (§2) Cancer cells (2-8 million cells) were seeded in 10 cm dishes and grown overnight. For A549 lung cancer cell line, about 3 million cells were seeded. Cells were then treated with different drugs at concentrations described in Table 8 for a period of time up to 48 hours. Cells were lysed in 0.3-0.5 mL of RIPA buffer (Sigma) supplemented with protease inhibitors (Roche) and phosphatase inhibitors (Sigma). Lysates were assayed for protein concentration using BCA kit (Pierce). Normalized amount of lysates (20-30 μg protein/lane) were run on 4-12% NuPage gel (Life Technologies) and the proteins were transferred to the PVDF or nitrocellulose membrane using iBlot® Transfer Stack (Life Technologies). The membranes were probed with primary antibodies shown in Table 9 at 4° C. overnight after blocking with 1×TBST containing 5% non-fat milk. Antibodies from other vendors could also be used in Western blot analysis. After washing 5 times with 1×TBS containing 0.1% Tween20, the membranes were probed with 2nd antibodies Anti-mouse IgG Dylight 800 conjugate or Anti-rabbit IgG DyLight 680 conjugate (1:10000; Cell signaling or similar IR 2nd antibodies from different vendors) at room temperature for one hour. After washing 5 times, the membranes were scanned using Odyssey® Imaging System (Licor Biosciences).

phospho-PKC (pan) = assay: as above; type: cell-based; conditions: for phospho-PKC (pan) levels: 48 hours, K103, K102 at 0.5 μM, K101A at […]
Experimental: as §2

HL60 = assay: Proliferation assay (CellTiter Glo); type: cell-based, human; conditions: 96 hours; for Top Inhibition %: % of top inhibition; for EC50: Homo sapiens, HL-60
Experimental: as §1

THP1 = assay: Proliferation assay (CellTiter Glo); type: cell-based, human; conditions: 96 hours; for EC50: Homo sapiens, THP-1; for Top Inhibition %: % of top inhibition
Experimental: as §1

[2] = MiaPaCa-2 (K-RAS: G12C), absolute EC50, read-out: Ab EC50
[3] = MiaPaCa-2, relative EC50, read-out: Re EC50
[4] = CCRF-CEM (K-RAS: G12D), absolute EC50, read-out: Ab EC50
[5] = CCRF-CEM, relative EC50, read-out: Re EC50
[6] = absolute EC50, read-out: Ab EC50
[7] = relative EC50, read-out: Re EC50
[8] = Capan-1 (K-RAS: G12V), absolute EC50, read-out: Ab EC50
[9] = Capan-1, relative EC50, read-out: Re EC50
[10] = HCT116 (K-RAS: G13D), absolute EC50, read-out: Ab EC50
[11] = AGS (gastric, K-RAS: G12D), absolute EC50, read-out: Ab EC50
[12] = AGS, relative EC50, read-out: Re EC50
[13] = A549 (K-RAS: G12S), absolute EC50, read-out: Ab EC50
[14] = A549, relative EC50, read-out: Re EC50
[15] = Pan2.03 (K-RAS: G12D), absolute EC50, read-out: Ab EC50
[16] = Pan2.03, relative EC50, read-out: Re EC50
[17] = KP-4 (K-RAS: G12C), absolute EC50, read-out: Ab EC50
[18] = KP-4, relative EC50, read-out: Re EC50
[19] = H441 (K-RAS: G12V), absolute EC50, read-out: Ab EC50
[20] = H441, relative EC50, read-out: Re EC50
[21] = Pan2.13 (K-RAS: Q61H), absolute EC50, read-out: Ab EC50
[22] = Pan2.13, relative EC50, read-out: Re EC50
[23] = AsPC-1 (K-RAS: G12D), absolute EC50, read-out: Ab EC50
[24] = AsPC-1, relative EC50, read-out: Re EC50
[25] = H727 (K-RAS: G12V), absolute EC50, read-out: Ab EC50
[26] = H727, relative EC50, read-out: Re EC50
[27] = HL60 (N-RAS: Q61L), absolute EC50, read-out: Ab EC50
[28] = HL60, relative EC50, read-out: Re EC50
[29] = THP1 (N-RAS: G12D), absolute EC50, read-out: Ab EC50
[30] = THP1, relative EC50, read-out: Re EC50

SMILES: CC(=O)O[C@@]12C[C@@H](C)[C@@]3(O)[C@@H](C=C(CO)C[C@]4(O)C(=O)C(C)=C[C@@H]34)[C@@H]1C2(C)C [Compound K101A, 12-deoxyphorbol 13-acetate]
- EC50 (MiaPaCa-2; [2]): 300 nM
- EC50 (MiaPaCa-2; [3]): 180 nM
- Top Inhibition % (MiaPaCa-2; MiaPaCa-2): 74.4%
- Top Inhibition % (CCRF-CEM; CCRF-CEM): 35.9%
- EC50 (CCRF-CEM; [4]): > 30000 nM
- EC50 (CCRF-CEM; [5]): 51 nM
- Top Inhibition % (H358): 56.4%
- EC50 (H358; [6]): 4900 nM
- EC50 (H358; [7]): 160 nM
- Top Inhibition % (Capan-1; Capan-1): 37.1%
- EC50 (Capan-1; [8]): > 30000 nM
- EC50 (Capan-1; [9]): 310 nM
- Top Inhibition % (HCT116; HCT116): 17.4%
- EC50 (HCT116; [10]): > 30000 nM
- Top Inhibition % (AGS; AGS): 21.7%
- EC50 (AGS; [11]): > 30000 nM
- EC50 (AGS; [12]): 490 nM
- Top Inhibition % (A549; A549): 76.0%
- EC50 (A549; [13]): 490 nM
- EC50 (A549; [14]): 270 nM
- EC50 (Pan2.03; [15]): > 30000 nM
- Top Inhibition % (Pan2.03; Pan2.03): 27.0%
- EC50 (Pan2.03; [16]): 120 nM
- EC50 (SW620): > 30000 nM
- Top Inhibition % (SW620): 0.0%
- EC50 (LS180): > 30000 nM
- Top Inhibition % (LS180): 4.4%
- EC50 (KP-4; [17]): 400 nM
- EC50 (KP-4; [18]): 190 nM
- Top Inhibition % (KP-4; KP-4): 63.3%
- Top Inhibition % (H441; H441): 42.1%
- EC50 (H441; [19]): > 30000 nM
- EC50 (H441; [20]): 320 nM
- EC50 (Pan2.13; [21]): > 30000 nM
- Top Inhibition % (Pan2.13; Pan2.13): 43.4%
- EC50 (Pan2.13; [22]): 17 nM
- Top Inhibition % (AsPC-1; AsPC-1): 32.4%
- EC50 (AsPC-1; [23]): > 30000 nM
- EC50 (AsPC-1; [24]): 270 nM
- Top Inhibition % (H727; H727): 48.3%
- EC50 (H727; [25]): > 30000 nM
- EC50 (H727; [26]): 190 nM
- LIF protein level ([1]; 0.5 μM): lowered
- protein levels of the leukemia inhibitory factor (LIF) [1]: dose-dependent reduction
- phospho-PKC (pan) level (phospho-PKC (pan); 0.5 μM): without affecting
- phospho-PKC (pan) levels (phospho-PKC (pan)): reduction
- Top Inhibition % (HL60; HL60): 61.3%
- EC50 (HL60; [27]): 470 nM
- EC50 (HL60; [28]): 400 nM
- EC50 (THP1; [29]): 870 nM
- EC50 (THP1; [30]): 300 nM
- Top Inhibition % (THP1; THP1): 51.8%

SMILES: C/C=C(/C)C(=O)O[C@H]1C(C)=C[C@]23C(=O)[C@@H](C=C(CO)[C@@H](O)[C@]12O)[C@H]1[C@@H](C[C@H]3C)C1(C)C [Compound K102, ingenol-3-angelate]
- EC50 (MiaPaCa-2; [2]): 13 nM
- EC50 (MiaPaCa-2; [3]): 9 nM
- Top Inhibition % (MiaPaCa-2; MiaPaCa-2): 79.3%
- Top Inhibition % (CCRF-CEM; CCRF-CEM): 30.3%
- EC50 (CCRF-CEM; [4]): > 3000 nM
- EC50 (CCRF-CEM; [5]): 0.9 nM
- Top Inhibition % (H358): 57.5%
- EC50 (H358; [6]): 97 nM
- EC50 (H358; [7]): 4.5 nM
- Top Inhibition % (Capan-1; Capan-1): 46.9%
- EC50 (Capan-1; [8]): > 30000 nM
- EC50 (Capan-1; [9]): 13 nM
- Top Inhibition % (HCT116; HCT116): 23.2%
- EC50 (HCT116; [10]): > 3000 nM
- EC50 (HCT116; HCT116, relative EC50, read-out: Re EC50): 21 nM
- Top Inhibition % (AGS; AGS): 42.9%
- EC50 (AGS; [11]): > 3000 nM
- EC50 (AGS; [12]): 12 nM
- Top Inhibition % (A549; A549): 80.8%
- EC50 (A549; [13]): 17 nM
- EC50 (A549; [14]): 17 nM
- EC50 (Pan2.03; [15]): > 3000 nM
- Top Inhibition % (Pan2.03; Pan2.03): 36.9%
- EC50 (Pan2.03; [16]): 3.3 nM
- EC50 (SW620): > 30000 nM
- Top Inhibition % (SW620): 0.0%
- EC50 (LS180): > 30000 nM
- Top Inhibition % (LS180): 9.3%
- EC50 (KP-4; [17]): 15 nM
- EC50 (KP-4; [18]): 15 nM
- Top Inhibition % (KP-4; KP-4): 62.2%
- Top Inhibition % (H441; H441): 50.6%
- EC50 (H441; [19]): 1010 nM
- EC50 (H441; [20]): 2.4 nM
- EC50 (Pan2.13; [21]): 3.9 nM
- Top Inhibition % (Pan2.13; Pan2.13): 51.7%
- EC50 (Pan2.13; [22]): 1.2 nM
- Top Inhibition % (AsPC-1; AsPC-1): 37.8%
- EC50 (AsPC-1; [23]): > 3000 nM
- EC50 (AsPC-1; [24]): 14 nM
- Top Inhibition % (H727; H727): 61.0%
- EC50 (H727; [25]): 22 nM
- EC50 (H727; [26]): 4.3 nM
- protein levels of the leukemia inhibitory factor (LIF) [1]: did not affect
- phospho-PKC (pan) levels (phospho-PKC (pan)): reduction
- Top Inhibition % (HL60; HL60): 60.1%
- EC50 (HL60; [27]): 15 nM
- EC50 (HL60; [28]): 14 nM
- EC50 (THP1; [29]): 15 nM
- EC50 (THP1; [30]): 12 nM
- Top Inhibition % (THP1; THP1): 52.4%
